The text below walks through data of PMC10610044, “The Cocrystal of Ubiquinol: Improved Stability and Bioavailability” (Pharmaceutics, 2023).

Structures are written as SMILES.

On the set-up of series [1]: method as in PMID 16551570. To be noted: oral; cited from earlier work.
On the set-up of series [2]: method as in PMID 7666987. As to conditions: 5-year period; cited from earlier work.
A short description of series [3]: Open stability study (25 °C, 60% RH, open conditions). The format is physicochemical. As to conditions: after 4 weeks, content at day 0 set as 100%. How it is done: Open stability was conducted at 25 °C, 60% RH, under open conditions without package and nitrogen protection. Accelerated stability was conducted at 40 °C, 75% RH, packaged with aluminum foil bags. The ubiquinol polymorph II and UQ-NC cocrystal were taken out at various intervals during exposure (open stability at 0, 3, 7, 14, 21, and 28 days and accelerated stability at 0, 1, 2, 3, and 6 months).
An Agilent 1260 series HPLC was used to determine the content of ubiquinol. The HPLC was equipped with a quaternary pump (G1311C), diode-array detector (G1315D), and a 4.6 mm × 100 mm, 2.7 μm packing L1 column. The detector was set at 290 nm. A mobile phase consisting of methanol and n-hexane (85/15, v/v) was run for 10 min at 1.5 mL/min. An injection of 20 μL was performed and the column temperature was set at 35 °C.

Series [4] in a line: Powder dissolution in simulated intestinal fluid (SIF) with 0.5% tween 80. It counts as physicochemical. As to conditions: SIF with 0.5% tween 80, 37 °C, up to 180 min. How it is done: (§1) Powder dissolution experiments were conducted in simulated intestinal fluid (SIF) and simulated gastric fluid (SGF) with 0.5% tween 80 at 37 °C using a Mini-Bath dissolution device equipped with a Julabo ED-5 heater/circulator. SIF was prepared by dissolving 6.8 g of KH2PO4 in 500 mL of water and then the pH was adjusted to 6.8 with 0.1 mol/L og NaOH solution. In total, 10 g of pancreatin was added and finally the solution was diluted to 1000 mL with water to obtain the SIF. SGF was prepared by mixing 16.4 mL of 10% HCl solution, 800 mL of water, and 10g of pepsin. Finally, the solution was diluted to 1000 mL with water to obtain the SGF. A total of 9.3 mg of cocrystal and 8.2 mg of polymorph II were added into 20 mL of the buffer solution. The stirring speed was set to 75 rpm. To minimize the size effect on the dissolution results, the ubiquinol cocrystal and polymorph II were sieved through 80-mesh sieves. Samples were collected at 5, 15, 20, 25, 30, 40, 50, 60, 80, 130, and 180 min each time, and were filtered through the 0.45 μm nylon filters. The concentration of ubiquinol was determined using HPLC. The detailed HPLC analysis method is described in Section 2.10.
(§2) An Agilent 1260 series HPLC was used to determine the content of ubiquinol. The HPLC was equipped with a quaternary pump (G1311C), diode-array detector (G1315D), and a 4.6 mm × 100 mm, 2.7 μm packing L1 column. […]

Series [5] can be described thus: Powder dissolution in simulated gastric fluid (SGF) with 0.5% tween 80. The format is physicochemical. To be noted: SGF with 0.5% tween 80, 37 °C, up to 180 min. How it is done:
as §1, §2

On the set-up of series [6]: method as in earlier work. As to conditions: after four weeks, open conditions, 25 °C; cited from earlier work.
Series [7] can be described thus: Pharmacokinetic study in male Sprague Dawley rats, plasma total coenzyme Q10. It counts as in vivo. To be noted: rat, gavage, 100 mg/kg as ubiquinol equivalents. How it is done:
Pharmacokinetic experiments were conducted on male Sprague Dawley rats to compare the oral exposure of the UQ-NC cocrystal and the ubiquinol marketed form II. The two ubiquinol samples were dispersed homogeneously in 0.5% CMC-Na (sodium carboxymethylcellulose) and 0.5% tween 80 aqueous solution to obtain the suspension of 10 mg/mL of ubiquinol. Twelve male Sprague Dawley rats weighing […] were randomly allocated into two groups (six rats in each group). Each received gavage administration at a dose of 100 mg/kg body (expressed as ubiquinol equivalents). After this administration, approximately 200 μL of blood sample was collected from the orbital sinus into heparinized tubes at 0, 1, 2, 3, 4, 6, 8, and 24 h for each rat.
In this experiment, the whole process was protected from light. An aliquot of 100 µL of plasma sample was added to 100 µL of p-benzoquinone and then placed for 10 min after vortex mixing. Next, a 400 µL methanol solution containing 1 µg/mL of IS Q9 and 1mL of n-hexane was added. The mixture was vortexed for 5 min and centrifuged at 14,000 rpm for 1 min. In total, 0.825 mL of the upper extract was transferred and dried under the condition of 30 °C nitrogen, and 200 µL of ethanol equal solution was added for re dissolution, vortexed, and mixed well. An aliquot of 4.00 µL of supernatant was injected for an LC-MS/MS analysis.
The quantification of coenzyme Q10 in the plasma samples was accomplished using an AB Sciex Triple Quad 4500 LC-MS instrument manufactured by SCIEX Co., Ltd., Framingham, MA, USA. Chromatography consisted of a Column NO.ZORBAX Eclipse Plus C18 (50 mm × 4.6 mm, 1.8 μm). The mobile phase consisted of acetonitrile and alcohol (50/50, v/v) at a flow rate of 1.0 mL min-1. An injection of 10 μL was performed and the column temperature was set to 40 °C. The detector was set at 290 nm. Multiple reaction monitoring modes (MRM) were used to perform the detection and quantification, with m/z 863.8→197.4 for coenzyme Q10. The DAS 2.0 program was used to perform the PK analysis.

On the set-up of series [8]: method as in doi:10.1016/j.jff.2008.09.010. To be noted: single 100 mg/day dose, individuals of >60 years; cited from earlier work.
The subject of another series is human dermal fibroblasts. On the set-up: method as in PMID 33482334. To be noted: compared to ubiquinone; cited from earlier work.
On the set-up of series [9]: method as in PMID 33673604. As to conditions: 1500 mg/day, multiple-system atrophy; cited from earlier work.
On the set-up of series [10]: method as in PMID 19096107. To be noted: patients changed from ubiquinone to ubiquinol; cited from earlier work.
For series [11] the following is noted: 200 mg/day with a main meal, 2-week supplementation, ten older men; cited from earlier work.

Turning to `COC1=C(OC)C(=O)C(C/C=C(\C)CC/C=C(\C)CC/C=C(\C)CC/C=C(\C)CC/C=C(\C)CC/C=C(\C)CC/C=C(\C)CC/C=C(\C)CC/C=C(\C)CCC=C(C)C)=C(C)C1=O` [CoQ10, Coenzyme Q10], in series [1], the “orally administered absorption efficiency” value was 2–3%.
On to `NC(=O)c1cccnc1` [nicotinamide], for which the “reduction in the development of insulin-dependent diabetes mellitus” value in series [2] was 50%.
For `COc1c(O)c(C)c(C/C=C(\C)CC/C=C(\C)CC/C=C(\C)CC/C=C(\C)CC/C=C(\C)CC/C=C(\C)CC/C=C(\C)CC/C=C(\C)CC/C=C(\C)CCC=C(C)C)c(O)c1OC` [polymorph I, ubiquinol], the “assay value of ubiquinol” value in series [3] was found to be 28.3%.
As for `COc1c(O)c(C)c(C/C=C(\C)CC/C=C(\C)CC/C=C(\C)CC/C=C(\C)CC/C=C(\C)CC/C=C(\C)CC/C=C(\C)CC/C=C(\C)CC/C=C(\C)CCC=C(C)C)c(O)c1OC` [polymorph II, ubiquinol], in series [4], the “AUC (dissolution)” value was 4500 µg·h/mL and the “Cmax (dissolution, ubiquinol concentration)” value was 90000 ng/mL. The “assay value of ubiquinol” value in series [3] is recorded as 94.2%. In [5], the “AUC (dissolution)” value is 1500 µg·h/mL and the “Cmax (dissolution, ubiquinol concentration)” value was 30000 ng/mL. The “ubiquinol transformed to ubiquinone” value in [6] is recorded as “about 6.9%”. In series [7], the “AUC0–8h” value is 0.1919 µg·h/mL; the Cmax (as a rule, the peak of the concentration-time curve) is 71.2 ng/mL; the MRT – broadly, the average time that molecules of a dose stay in the body – stood at 43.3 h; the T1/2 is reported as 29.9 h. Moreover, in series [7], the Tmax (usually the time at which the peak concentration occurs) came out at 8.0 h.
Regarding `COc1c(O)c(C)c(C/C=C(\C)CC/C=C(\C)CC/C=C(\C)CC/C=C(\C)CC/C=C(\C)CC/C=C(\C)CC/C=C(\C)CC/C=C(\C)CC/C=C(\C)CCC=C(C)C)c(O)c1OC` [ubiquinol], in series [8], the “increase of plasma AUC0–72h compared with ubiquinone” value is given as 430% and the “plasma AUC0–72h compared with subjects receiving ubiquinone” value is recorded as 4.3 fold. In addition, in the series with human dermal fibroblasts, the “reverting the expression of the senescent phenotype (β-galactosidase positivity, p21, collagen type 1, elastin)” value is listed as “more efficient”. In addition, in series [9], the “decline in UMSARS part 2 score compared to placebo” value was “significantly smaller decline” and the tolerability result is recorded as “well-tolerated”. In addition, in [10], the “symptoms of heart failure” value is reported as “significantly improved”. Further, in [11], the “plasma CoQ10 status” value is “significant increase”.
